Biological target: GCN2 (Homo sapiens, UniProt Q9P2K8)
Assay: GCN2 enzymatic endpoint assay: phosphorylation of GFP-eIF2α measured by TR-FRET (Lanthascreen)
Format: biochemical
Conditions: tested as described in Example 77; compound and/or hydrochloride, dihydrochloride or trifluoroacetic acid salt; read-out: IC 50 Activity
Outline: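 Kinase activity is measured as phosphorylation of GFP-labelled eIF2α (80 nM) with ATP at 2 μM. Incubation runs 90 minutes at room temperature before EDTA quench and terbium-antibody detection.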

Sequence of GCN2 (Q9P2K8 whole entry): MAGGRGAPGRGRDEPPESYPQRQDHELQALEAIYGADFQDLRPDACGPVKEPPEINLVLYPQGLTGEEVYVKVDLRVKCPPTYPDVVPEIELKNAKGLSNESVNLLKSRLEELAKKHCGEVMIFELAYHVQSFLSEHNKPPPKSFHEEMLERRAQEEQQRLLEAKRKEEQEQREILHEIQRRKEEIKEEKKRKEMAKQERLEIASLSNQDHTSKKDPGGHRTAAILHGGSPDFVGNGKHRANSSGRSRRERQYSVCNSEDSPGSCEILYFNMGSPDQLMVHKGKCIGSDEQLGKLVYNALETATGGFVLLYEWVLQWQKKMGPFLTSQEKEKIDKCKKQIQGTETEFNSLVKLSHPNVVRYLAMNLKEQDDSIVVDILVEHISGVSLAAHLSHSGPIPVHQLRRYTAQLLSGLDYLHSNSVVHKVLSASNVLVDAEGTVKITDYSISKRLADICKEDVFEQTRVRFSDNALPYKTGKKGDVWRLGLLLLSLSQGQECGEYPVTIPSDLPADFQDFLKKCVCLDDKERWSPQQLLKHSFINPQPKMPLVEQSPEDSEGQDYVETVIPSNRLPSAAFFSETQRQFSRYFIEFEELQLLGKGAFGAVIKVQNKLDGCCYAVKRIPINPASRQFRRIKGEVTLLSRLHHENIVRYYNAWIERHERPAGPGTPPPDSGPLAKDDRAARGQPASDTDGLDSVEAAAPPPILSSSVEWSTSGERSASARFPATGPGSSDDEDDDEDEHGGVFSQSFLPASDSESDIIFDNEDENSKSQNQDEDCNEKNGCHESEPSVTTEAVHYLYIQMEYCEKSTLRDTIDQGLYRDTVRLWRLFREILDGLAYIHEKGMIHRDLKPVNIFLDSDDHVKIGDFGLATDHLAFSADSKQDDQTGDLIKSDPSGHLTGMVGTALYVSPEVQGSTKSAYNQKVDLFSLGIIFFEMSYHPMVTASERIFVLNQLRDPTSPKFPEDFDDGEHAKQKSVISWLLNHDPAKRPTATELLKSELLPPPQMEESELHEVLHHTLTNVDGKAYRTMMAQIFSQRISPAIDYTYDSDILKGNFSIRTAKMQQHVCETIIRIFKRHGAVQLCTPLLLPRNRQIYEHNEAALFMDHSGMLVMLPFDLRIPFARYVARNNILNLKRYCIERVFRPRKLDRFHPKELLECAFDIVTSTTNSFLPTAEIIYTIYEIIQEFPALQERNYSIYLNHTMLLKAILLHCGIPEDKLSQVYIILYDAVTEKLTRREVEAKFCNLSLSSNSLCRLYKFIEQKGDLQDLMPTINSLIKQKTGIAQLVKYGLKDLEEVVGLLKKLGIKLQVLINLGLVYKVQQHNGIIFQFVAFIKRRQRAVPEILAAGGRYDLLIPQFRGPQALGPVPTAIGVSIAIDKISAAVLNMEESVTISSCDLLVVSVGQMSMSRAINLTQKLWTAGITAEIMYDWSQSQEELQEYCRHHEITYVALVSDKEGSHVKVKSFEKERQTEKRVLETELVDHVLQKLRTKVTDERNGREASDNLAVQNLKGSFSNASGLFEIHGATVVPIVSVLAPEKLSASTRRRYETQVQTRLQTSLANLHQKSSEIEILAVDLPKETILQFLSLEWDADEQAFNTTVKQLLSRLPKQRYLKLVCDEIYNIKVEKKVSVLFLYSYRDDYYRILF

Row | IC50 [µM] | Structure (SMILES)
1 | 0.025 to 0.2 | Cc1nnc(-c2ccc(-n3nc(Br)c4cnc(NC5CC(S(C)(=O)=O)C5)nc43)cc2)s1 (stereo not shown) [3-bromo-N-(3-methylsulfonylcyclobutyl)-1-[4-(5-methyl-1,3,4-thiadiazol-2-yl)phenyl] pyrazolo[3,4-d]pyrimidin-6-amine]
2 | 0.2 to 0.5 | O=S(=O)([C@@H]1CC[C@@H](Nc2ncc3c(Br)nn(-c4ccc5ncccc5c4)c3n2)C1)N1CCOCC1 [3-bromo-N-((1R,3R)-3-(morpholinosulfonyl)cyclopentyl)-1-(quinolin-6-yl)-1H-pyrazolo [3,4-d]pyrimidin-6-amine]
3 | 0.025 to 0.2 | Cc1nnc(-c2ccc(-n3nc(Br)c4cnc(NC5CCN(CC(F)F)C5)nc43)cc2)s1 (stereo not shown) [3-bromo-N-[1-(2,2-difluoroethyl)pyrrolidin-3-yl]-1-[4-(5-methyl-1,3,4-thiadiazol-2-yl)phenyl] pyrazolo[3,4-d]pyrimidin-6-amine]
4 | 0.025 to 0.2 | Cc1nnc(-c2ccc(-n3nc(Br)c4cnc(N[C@@H]5CCC(S(C)(=O)=O)C5)nc43)cc2)s1 (stereo partly drawn) [3-bromo-N-[(1R)-3-methylsulfonylcyclo-pentyl]-1-[4-(5-methyl-1,3,4-thiadiazol-2-yl)phenyl]pyrazolo[3,4-d]pyrimidin-6-amine]
5 | 0.025 to 0.2 | Cc1nnc(-c2ccc(-n3nc(Br)c4cnc(N[C@@H]5CCC[C@@H](P(C)(C)=O)C5)nc43)cc2)s1 [3-bromo-N-[(1R,3R)-3-dimethylphosphoryl-cyclohexyl]-1-[4-(5-methyl-1,3,4-thiadiazol-2-yl)phenyl]pyrazolo[3,4-d]pyrimidin-6-amine]
6 | 0.025 to 0.2 | Cc1ccc2cc(-n3nc(Br)c4cnc(N[C@@H]5CC[C@@H](P(C)(C)=O)C5)nc43)cc(F)c2n1 [3-bromo-N-[(1R,3R)-3-dimethylphosphoryl-cyclopentyl]-1-(8-fluoro-2-methyl-6-quinolyl) pyrazolo[3,4-d]pyrimidin-6-amine]
7 | 0.025 to 0.2 | CP(C)(=O)[C@@H]1CC[C@@H](Nc2ncc3c(Br)nn(-c4cc(C5CCNC5)c5ncccc5c4)c3n2)C1 (stereo partly drawn) [3-bromo-N-[(1R,3R)-3-dimethylphosphoryl-cyclopentyl]-1-(8-pyrrolidin-3-yl-6-quinolyl) pyrazolo[3,4-d]pyrimidin-6-amine]
8 | 0.025 to 0.2 | Cc1nnc(-c2ccc(-n3nc(Br)c4cnc(N[C@@H]5CC[C@@H](P(C)(C)=O)C5)nc43)cc2CCS(C)(=O)=O)s1 [3-bromo-N-[(1R,3R)-3-dimethylphosphoryl-cyclopentyl]-1-[3-(2-methylsulfonylethyl)-4-(5-methyl-1,3,4-thiadiazol-2-yl)phenyl] pyrazolo[3,4-d]pyrimidin-6-amine]
9 | 0.025 to 0.2 | Cc1nnc(-c2ccc(-n3nc(Br)c4cnc(N[C@@H]5CC[C@H](P(C)(C)=O)C5)nc43)cc2)s1 [3-bromo-N-[(1R,3S)-3-dimethylphosphoryl-cyclopentyl]-1-[4-(5-methyl-1,3,4-thiadiazol-2-yl)phenyl]pyrazolo[3,4-d]pyrimidin-6-amine]
10 | 0.025 to 0.2 | Cc1nc2c(F)cc(-n3nc(Br)c4cnc(N[C@@H]5CC[C@@H](C(=O)N6CCN(C)C(=O)C6)C5)nc43)cc2cc1F [4-((1R,3R)-3-((3-bromo-1-(3,8-difluoro-2-methylquinolin-6-yl)-1H-pyrazolo[3,4-d]pyrimidin-6-yl)amino)cyclopentane-1-carbonyl)-1-methylpiperazin-2-one]
11 | 0.025 to 0.2 | Cc1nnc(-c2ccc(-n3nc(Br)c4cnc(N[C@@H]5CC[C@@H](C(=O)N6CCN(C)C(=O)C6)C5)nc43)cc2F)o1 [4-((1R,3R)-3-((3-bromo-1-(3-fluoro-4-(5-methyl-1,3,4-oxadiazol-2-yl)phenyl)-1H-pyrazolo[3,4-d]pyrimidin-6-yl)amino)cyclo-pentane-1-carbonyl)-1-methylpiperazin-2-one]
12 | 0.025 to 0.2 | Cc1nnc(-c2ccc(-n3nc(Br)c4cnc(N[C@@H]5CC[C@@H](C(=O)N6CCN(C)C(=O)C6)C5)nc43)cc2)o1 [4-((1R,3R)-3-((3-bromo-1-(4-(5-methyl-1,3,4-oxadiazol-2-yl)phenyl)-1H-pyrazolo[3,4-d]pyrimidin-6-yl)amino)cyclopentane-1-carbonyl)-1-methylpiperazin-2-one]
13 | 0.025 to 0.2 | O=C1CN(C(=O)[C@@H]2CC[C@@H](Nc3ncc4c(Br)nn(-c5ccc(-c6ncco6)cc5)c4n3)C2)CCN1 [4-((1R,3R)-3-((3-bromo-1-(4-(oxazol-2-yl)phenyl)-1H-pyrazolo[3,4-d]pyrimidin-6-yl)amino)cyclopentane-1-carbonyl)piperazin-2-one]
14 | 0.025 to 0.2 | CN1CCN(C(=O)[C@@H]2CC[C@@H](Nc3ncc4c(Br)nn(-c5cc(C(F)F)c6ncccc6c5)c4n3)C2)CC1=O [4-((1R,3R)-3-((3-bromo-1-(8-(difluoromethyl)quinolin-6-yl)-1H-pyrazolo[3,4-d]pyrimidin-6-yl)amino)cyclopentane-1-carbonyl)-1-methyl-piperazin-2-one]
15 | 0.025 to 0.2 | O=C1CN(C(=O)[C@@H]2CC[C@@H](Nc3ncc4c(Br)nn(-c5cc(C(F)F)c6ncccc6c5)c4n3)C2)CCN1 [4-((1R,3R)-3-((3-bromo-1-(8-(difluoromethyl)quinolin-6-yl)-1H-pyrazolo[3,4-d]pyrimidin-6-yl)amino)cyclopentane-1-carbonyl)piperazin-2-one]
16 | 0.025 to 0.2 | CN1CCN(C(=O)[C@@H]2CC[C@@H](Nc3ncc4c(Br)nn(-c5cnc6c(Cl)nccc6c5)c4n3)C2)CC1=O [4-((1R,3R)-3-((3-bromo-1-(8-chloro-1,7-naphthyridin-3-yl)-1H-pyrazolo[3,4-d]pyrimidin-6-yl)amino)cyclopentane-1-carbonyl)-1-methylpiperazin-2-one]
17 | 0.025 to 0.2 | CN1CCN(C(=O)[C@@H]2CC[C@@H](Nc3ncc4c(Br)nn(-c5cc(F)c6ncccc6c5)c4n3)C2)CC1=O [4-((1R,3R)-3-((3-bromo-1-(8-fluoroquinolin-6-yl)-1H-pyrazolo[3,4-d]pyrimidin-6-yl)amino)cyclopentane-1-carbonyl)-1-methyl-piperazin-2-one]
18 | 0.025 to 0.2 | O=C1CN(C(=O)[C@@H]2CC[C@@H](Nc3ncc4c(Br)nn(-c5cc(F)c6ncccc6c5)c4n3)C2)CCN1 [4-((1R,3R)-3-((3-bromo-1-(8-fluoroquinolin-6-yl)-1H-pyrazolo[3,4-d]pyrimidin-6-yl)amino)cyclopentane-1-carbonyl)piperazin-2-one]
19 | < 0.025 | O=C1CN(C(=O)[C@@H]2CC[C@@H](Nc3ncc4c(Br)nn(-c5cc(F)c6ncccc6c5)c4n3)C2)CC(=O)N1 [4-((1R,3R)-3-((3-bromo-1-(8-fluoroquinolin-6-yl)-1H-pyrazolo[3,4-d]pyrimidin-6-yl)amino)cyclopentane-1-carbonyl)piperazine-2,6-dione]
20 | 0.025 to 0.2 | CN1CCN(C(=O)[C@@H]2CC[C@@H](Nc3ncc4c(Br)nn(-c5ccc6ncccc6c5)c4n3)C2)CC1=O [4-((1R,3R)-3-((3-bromo-1-(quinolin-6-yl)-1H-pyrazolo[3,4-d]pyrimidin-6-yl)amino)cyclo-pentane-1-carbonyl)-1-methylpiperazin-2-one]
21 | 0.2 to 0.5 | CS(=O)(=O)CCNC(=O)C12CCC(Nc3ncc4c(Br)nn(-c5ccc6ncccc6c5)c4n3)(C1)C2 [4-((3-bromo-1-(quinolin-6-yl)-1H-pyrazolo [3,4-d]pyrimidin-6-yl)amino)-N-(2-(methyl-sulfonyl)ethyl)bicyclo[2.1.1]hexane-1-carboxamide]
22 | 0.2 to 0.5 | COCCNC(=O)C12CCC(Nc3ncc4c(Br)nn(-c5ccc6ncccc6c5)c4n3)(CC1)C2 [4-((3-bromo-1-(quinolin-6-yl)-1H-pyrazolo [3,4-d]pyrimidin-6-yl)amino)-N-(2-methoxyethyl)bicyclo[2.2.1]heptane-1-carboxamide]
